Measurements taken from patent US6692880B2, “Electrophotographic toner with stable triboelectric properties” (Heidelberger Druckmaschinen AG, priority 2001, dated 2004).
Values belong to the compound of their own block, whether it stands above or below them.

What was measured:
[1] = obtained or extrapolated from tables in Morrison and Boyd; cited from earlier work
[2] = Charge per mass of developers after exercise periods, MECCA device; format: physicochemical; conditions: clear polyester toner; for Fresh Developer 10 min exercise (charge values) / Fresh developer 2 min shake (charge values) / Rebuilt developer 2 min shake (charge values) / Rebuilt developer 10 min exercise (charge values): Binder C resin
[3] = pKa values measured by titrimetry; format: physicochemical; conditions: (a) values measured by titrimetry; read-out: pKa 1
Excerpt: Any acidic material having a pKa in the range of from about 2 to about 8 can be used as the first charge control agent. Acidic materials with pKa values of from 3 to 7 are particularly preferred. Acidic materials preferably contain a labile proton, such as a carboxylic, phenolic or sulfonic acid. More broadly an acid also includes compounds within the definition as proposed by G. N. Lewis, that is an acid is any material capable of accepting an electron pair from a donor molecule. The term pKa is defined as
where Ka is an inherent molecular property of an acidic compound and is called the acid dissociation constant. Ka is defined by the following equation; [formula]
In a practical sense the lower the pKa value the stronger the acid. Acids useful in this invention may have more than one acid function per molecule such as di- and tri-carboxylic or di- and tri-sulfonic acids. Further, multiple types of acid functional groups may be present in the useful molecule for example as in p-carboxybenzenesulfonic acid. One skilled in the art can readily propose other such acids based on the foregoing definitions.

[4] = 0.2 pph added acid, 2 pph Bontron E-84
[5] = 1 pph added acid, 2 pph Bontron E-84
[6] = 5 pph added acid, 2 pph Bontron E-84
[7] = 0.2 pph added acid, LLT-101 resin, 2 pph Bontron E-84
[8] = 0.2 pph adipic acid added, 0 pph Bontron E-84, Binder C
[9] = 0.2 pph adipic acid added, 2 pph Bontron E-84, Binder C
[10] = 1 pph added acid, LLT-101 resin, 2 pph Bontron E-84
[11] = 1 pph adipic acid added, 0 pph Bontron E-84, Binder C
[12] = 1 pph adipic acid added, 2 pph Bontron E-84, Binder C
[13] = 5 pph added acid, LLT-101 resin, 2 pph Bontron E-84
[14] = 5 pph adipic acid added, 0 pph Bontron E-84, Binder C
[15] = 5 pph adipic acid added, 2 pph Bontron E-84, Binder C

SMILES: CC(C)(C)c1cc(C(=O)O)cc(C(C)(C)C)c1 [3,5-di-t-butylbenzoic, 3,5-di-t-butylbenzoic acid]
pKa 1 [1]: 4.6

Fresh Developer 10 min exercise (charge values) [2, 4]: −78.1 μC/g | Fresh developer 2 min shake (charge values) [2, 4]: −35.3 μC/g | Rebuilt developer 2 min shake (charge values) [2, 4]: −63.2 μC/g | Rebuilt developer 10 min exercise (charge values) [2, 4]: −72.1 μC/g | Fresh Developer 10 min exercise (charge values) [2, 5]: −84.8 μC/g | Fresh developer 2 min shake (charge values) [2, 5]: −40.0 μC/g | Rebuilt developer 2 min shake (charge values) [2, 5]: −56.8 μC/g | Rebuilt developer 10 min exercise (charge values) [2, 5]: −67.7 μC/g | Fresh Developer 10 min exercise (charge values) [2, 6]: −71.6 μC/g | Fresh developer 2 min shake (charge values) [2, 6]: −36.9 μC/g | Rebuilt developer 2 min shake (charge values) [2, 6]: −42.6 μC/g | Rebuilt developer 10 min exercise (charge values) [2, 6]: −60.5 μC/g
SMILES: Nc1ccc(C(=O)O)cc1 [4-aminobenzoic acid]

Fresh Developer 10 min exercise (charge per mass) [2, 7]: −63.2 μC/g | Fresh developer 2 min shake (charge per mass) [2, 7]: −25.9 μC/g | Rebuilt developer 2 min shake (charge per mass) [2, 7]: −56.9 μC/g | Rebuilt developer 10 min exercise (charge per mass) [2, 7]: −57.7 μC/g | Fresh Developer 10 min exercise (charge per mass) [2, 8]: −30.1 μC/g | Fresh developer 2 min shake (charge per mass) [2, 8]: −10.0 μC/g | Rebuilt developer 2 min shake (charge per mass) [2, 8]: −7.1 μC/g | Rebuilt developer 10 min exercise (charge per mass) [2, 8]: −17.3 μC/g | Fresh Developer 10 min exercise (charge per mass) [2, 9]: −64.2 μC/g | Fresh developer 2 min shake (charge per mass) [2, 9]: −29.6 μC/g | Rebuilt developer 2 min shake (charge per mass) [2, 9]: −39.4 μC/g | Rebuilt developer 10 min exercise (charge per mass) [2, 9]: −49.6 μC/g | Fresh Developer 10 min exercise (charge per mass) [2, 10]: −40.9 μC/g | Fresh developer 2 min shake (charge per mass) [2, 10]: −23.7 μC/g | Rebuilt developer 2 min shake (charge per mass) [2, 10]: −27.1 μC/g | Rebuilt developer 10 min exercise (charge per mass) [2, 10]: −28.8 μC/g | Fresh Developer 10 min exercise (charge per mass) [2, 11]: −27.6 μC/g | Fresh developer 2 min shake (charge per mass) [2, 11]: −10.1 μC/g | Rebuilt developer 2 min shake (charge per mass) [2, 11]: −4.6 μC/g | Rebuilt developer 10 min exercise (charge per mass) [2, 11]: −12.5 μC/g | Fresh Developer 10 min exercise (charge per mass) [2, 12]: −41.8 μC/g | Fresh developer 2 min shake (charge per mass) [2, 12]: −30.4 μC/g | Rebuilt developer 2 min shake (charge per mass) [2, 12]: −17.1 μC/g | Rebuilt developer 10 min exercise (charge per mass) [2, 12]: −32.3 μC/g | Fresh Developer 10 min exercise (charge per mass) [2, 13]: −25.8 μC/g | Fresh developer 2 min shake (charge per mass) [2, 13]: −18.6 μC/g | Rebuilt developer 2 min shake (charge per mass) [2, 13]: −17.9 μC/g | Rebuilt developer 10 min exercise (charge per mass) [2, 13]: −24.5 μC/g | Fresh Developer 10 min exercise (charge per mass) [2, 14]: −28.4 μC/g | Fresh developer 2 min shake (charge per mass) [2, 14]: −10.4 μC/g | Rebuilt developer 2 min shake (charge per mass) [2, 14]: −5.3 μC/g | Rebuilt developer 10 min exercise (charge per mass) [2, 14]: −11.6 μC/g | Fresh Developer 10 min exercise (charge per mass) [2, 15]: −35.7 μC/g | Fresh developer 2 min shake (charge per mass) [2, 15]: −18.5 μC/g | Rebuilt developer 2 min shake (charge per mass) [2, 15]: −11.2 μC/g | Rebuilt developer 10 min exercise (charge per mass) [2, 15]: −29.2 μC/g
SMILES: O=C(O)CCCCC(=O)O [Adipic acid]
pKa 1 [1]: 4.5

SMILES: O=C(O)CCCC(=O)O [Glutaric acid]
pKa 2 [1]: 5.4 | Fresh Developer 10 min exercise (charge values) [2, 4]: −66.2 μC/g | Fresh developer 2 min shake (charge values) [2, 4]: −26.5 μC/g | Rebuilt developer 2 min shake (charge values) [2, 4]: −45.7 μC/g | Rebuilt developer 10 min exercise (charge values) [2, 4]: −58.1 μC/g | Fresh Developer 10 min exercise (charge values) [2, 5]: −42.5 μC/g | Fresh developer 2 min shake (charge values) [2, 5]: −16.6 μC/g | Rebuilt developer 2 min shake (charge values) [2, 5]: −15.6 μC/g | Rebuilt developer 10 min exercise (charge values) [2, 5]: −30.1 μC/g | Fresh Developer 10 min exercise (charge values) [2, 6]: −11.8 μC/g | Fresh developer 2 min shake (charge values) [2, 6]: −6.2 μC/g | Rebuilt developer 2 min shake (charge values) [2, 6]: −4.5 μC/g | Rebuilt developer 10 min exercise (charge values) [2, 6]: −13.3 μC/g

SMILES: C=C(CC(=O)O)C(=O)O [Itaconic acid]
Fresh Developer 10 min exercise (charge values) [2, 4]: −63.1 μC/g | Fresh developer 2 min shake (charge values) [2, 4]: −20.6 μC/g | Rebuilt developer 2 min shake (charge values) [2, 4]: −41.3 μC/g | Rebuilt developer 10 min exercise (charge values) [2, 4]: −49.7 μC/g | Fresh Developer 10 min exercise (charge values) [2, 5]: −33.7 μC/g | Fresh developer 2 min shake (charge values) [2, 5]: −13.6 μC/g | Rebuilt developer 2 min shake (charge values) [2, 5]: −10.2 μC/g | Rebuilt developer 10 min exercise (charge values) [2, 5]: −22.6 μC/g | Fresh Developer 10 min exercise (charge values) [2, 6]: −24.1 μC/g | Fresh developer 2 min shake (charge values) [2, 6]: −11.9 μC/g | Rebuilt developer 2 min shake (charge values) [2, 6]: −6.4 μC/g | Rebuilt developer 10 min exercise (charge values) [2, 6]: −18.7 μC/g

Fresh Developer 10 min exercise (charge values) [2, 4]: −88.1 μC/g | Fresh developer 2 min shake (charge values) [2, 4]: −44.3 μC/g | Rebuilt developer 2 min shake (charge values) [2, 4]: −60.1 μC/g | Rebuilt developer 10 min exercise (charge values) [2, 4]: −77.5 μC/g | Fresh Developer 10 min exercise (charge per mass) [2, 7]: −96.0 μC/g | Fresh developer 2 min shake (charge per mass) [2, 7]: −40.9 μC/g | Rebuilt developer 2 min shake (charge per mass) [2, 7]: −83.5 μC/g | Rebuilt developer 10 min exercise (charge per mass) [2, 7]: −110.1 μC/g | Fresh Developer 10 min exercise (charge values) [2, 5]: −104.5 μC/g | Fresh developer 2 min shake (charge values) [2, 5]: −43.7 μC/g | Rebuilt developer 2 min shake (charge values) [2, 5]: −69.6 μC/g | Rebuilt developer 10 min exercise (charge values) [2, 5]: −90.8 μC/g | Fresh Developer 10 min exercise (charge per mass) [2, 10]: −125.5 μC/g | Fresh developer 2 min shake (charge per mass) [2, 10]: −52.5 μC/g | Rebuilt developer 2 min shake (charge per mass) [2, 10]: −114.0 μC/g | Rebuilt developer 10 min exercise (charge per mass) [2, 10]: −123.0 μC/g | Fresh Developer 10 min exercise (charge values) [2, 6]: bicharged | Fresh developer 2 min shake (charge values) [2, 6]: −14.7 μC/g | Rebuilt developer 2 min shake (charge values) [2, 6]: −35.0 μC/g | Rebuilt developer 10 min exercise (charge values) [2, 6]: bicharged | Fresh Developer 10 min exercise (charge per mass) [2, 13]: bicharged | Fresh developer 2 min shake (charge per mass) [2, 13]: −8.7 μC/g | Rebuilt developer 2 min shake (charge per mass) [2, 13]: −12.1 μC/g | Rebuilt developer 10 min exercise (charge per mass) [2, 13]: −6.2 μC/g
SMILES: CCCCCCCCCCCC(=O)O [Lauric acid]

pKa [3]: 6.6
SMILES: CC1=NN(c2ccccc2)C(=O)C1 [MPP, 2,4-dihydro-5-methyl-2-phenyl-3H-pyrazol-3-one]

Fresh Developer 10 min exercise (charge values) [2, 4]: −65.5 μC/g | Fresh developer 2 min shake (charge values) [2, 4]: −22.7 μC/g | Rebuilt developer 2 min shake (charge values) [2, 4]: −46.5 μC/g | Rebuilt developer 10 min exercise (charge values) [2, 4]: −62.0 μC/g | Fresh Developer 10 min exercise (charge values) [2, 5]: −50.5 μC/g | Fresh developer 2 min shake (charge values) [2, 5]: −21.0 μC/g | Rebuilt developer 2 min shake (charge values) [2, 5]: −25.5 μC/g | Rebuilt developer 10 min exercise (charge values) [2, 5]: −46.5 μC/g | Fresh Developer 10 min exercise (charge values) [2, 6]: −41.1 μC/g | Fresh developer 2 min shake (charge values) [2, 6]: −17.4 μC/g | Rebuilt developer 2 min shake (charge values) [2, 6]: −17.0 μC/g | Rebuilt developer 10 min exercise (charge values) [2, 6]: −42.8 μC/g
SMILES: O=C(O)c1ccccc1O [Salicylic acid]

Fresh Developer 10 min exercise (charge values) [2, 4]: −58.9 μC/g | Fresh developer 2 min shake (charge values) [2, 4]: −25.5 μC/g | Rebuilt developer 2 min shake (charge values) [2, 4]: −45.3 μC/g | Rebuilt developer 10 min exercise (charge values) [2, 4]: −49.8 μC/g | Fresh Developer 10 min exercise (charge per mass) [2, 7]: −37.2 μC/g | Fresh developer 2 min shake (charge per mass) [2, 7]: −30.3 μC/g | Rebuilt developer 2 min shake (charge per mass) [2, 7]: −43.9 μC/g | Rebuilt developer 10 min exercise (charge per mass) [2, 7]: −35.6 μC/g | Fresh Developer 10 min exercise (charge values) [2, 5]: −46.9 μC/g | Fresh developer 2 min shake (charge values) [2, 5]: −24.4 μC/g | Rebuilt developer 2 min shake (charge values) [2, 5]: −34.4 μC/g | Rebuilt developer 10 min exercise (charge values) [2, 5]: −37.9 μC/g | Fresh Developer 10 min exercise (charge per mass) [2, 10]: −19.7 μC/g | Fresh developer 2 min shake (charge per mass) [2, 10]: −34.9 μC/g | Rebuilt developer 2 min shake (charge per mass) [2, 10]: −15.2 μC/g | Rebuilt developer 10 min exercise (charge per mass) [2, 10]: −12.9 μC/g | Fresh Developer 10 min exercise (charge values) [2, 6]: −13.8 μC/g | Fresh developer 2 min shake (charge values) [2, 6]: −28.3 μC/g | Rebuilt developer 2 min shake (charge values) [2, 6]: −16.5 μC/g | Rebuilt developer 10 min exercise (charge values) [2, 6]: −13.3 μC/g | Fresh Developer 10 min exercise (charge per mass) [2, 13]: −10.0 μC/g | Fresh developer 2 min shake (charge per mass) [2, 13]: −32.8 μC/g | Rebuilt developer 2 min shake (charge per mass) [2, 13]: −18.2 μC/g | Rebuilt developer 10 min exercise (charge per mass) [2, 13]: −5.8 μC/g
SMILES: O=C(O)c1ccc(C(=O)O)cc1 [Terephthalic acid]

pKa [3]: 3.5
SMILES: CCOC(=O)/C=C/C(=O)O [fumaric acid monoethyl ester]

SMILES: O=C(O)c1ccccc1C(=O)O [phthalic]
pKa 1 [1]: 3.0 | pKa 2 [1]: 5.4
